Results: patent US11369565B2, “Amino-pyrimidine skeletal muscle modulators” (Cytokinetics, Inc., priority 2010, dated 2022)

Tested on: rabbit skeletal myofibrils (approximately 90% fast fibers)
Experiment: Activation of fast skeletal myofibrils (PUMA coupled-enzyme ATPase assay at pCa25)
Format: biochemical
Settings: concentration at which the compound increased the enzymatic activity by 40%; calcium at pCa25; PM12 buffer pH 6.8
Procedure, shortened: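 In pH 6.8 PM12 buffer (12 mM Pipes, 2 mM MgCl2, 1 mM DTT), ADP from myosin regenerated via pyruvate kinase/lactate dehydrogenase, with absorbance change at 340 nm from NADH oxidation as read-out. Calcium set at pCa25; Triton-washed rabbit skeletal myofibrils (about 90% fast fibres) used.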

SMILES	Mean AC1.4
CC(C)(Nc1ncc(-c2cccc(C(N)=O)c2)cn1)c1cccc(OC(F)F)n1 [3-[2-({1-[6-(difluoromethoxy)(2-pyridyl)]-isopropyl}amino)pyrimidin-5-yl]benzamide]	A (A=<1 uM)
N#Cc1ccc2nc(NC3(c4ncccc4F)CCC3)ncc2c1 [2-{[(3-fluoro-2-pyridyl)cyclobutyl]amino}quinazoline-6-carbonitrile]	D (D=>20 uM)
N#Cc1cc(-c2cnc(NC3(c4ncccc4F)CCC3)nc2)ccn1 [4-(2-{[(3-fluoro-2-pyridyl)cyclobutyl]amino}pyrimidin-5-yl)pyridine-2-carbonitrile]	D (D=>20 uM)
CC(C)(Nc1ncc(-c2cn3cc(C(N)=O)ccc3n2)cn1)c1ncccc1Cl [2-(2-{[1-(3-chloro(2-pyridyl))-isopropyl]amino}pyrimidin-5-yl)-4-hydroimidazo[1,2-a]pyridine-6-carboxamide]	C (C=10-20 uM)
O=C(O)c1cnc(NC2(c3ccc(F)cc3)CCC2)nc1C(F)(F)F [2-{[(4-fluorophenyl)cyclobutyl]amino}-4-(trifluoromethyl)pyrimidine-5-carboxylic acid]	D (D=>20 uM)
CC(C)(CNc1ncc(-c2ccc(C(N)=O)cc2)cn1)c1ccc(F)cc1 [4-(2-{[2-(4-fluorophenyl)-2-methylpropyl]amino}pyrimidin-5-yl)benzamide]	B (B=1-10 uM)
CC(C)(Nc1ncc(-c2cccc(C(N)=O)c2)cn1)c1ccccc1S(C)(=O)=O [3-[2-({1-methyl-1-[2-(methylsulfonyl)phenyl]ethyl}amino)pyrimidin-5-yl]benzamide]	D (D=>20 uM)
CC(C)(Nc1ncc(-c2nc(CNC(=O)CN)cs2)cn1)c1ncccc1F [2-amino-N-{[2-(2-{[1-(3-fluoro(2-pyridyl))-isopropyl]amino}pyrimidin-5-yl)(1,3-thiazol-4-yl)]methyl}acetamide]	D (D=>20 uM)
CSc1ccc(C(C)(C)Nc2ncc(-c3cccc(C#N)c3)cn2)cc1 [3-(2-{[1-methyl-1-(4-methylthiophenyl)ethyl]amino}pyrimidin-5-yl)benzenecarbonitrile]	D (D=>20 uM)
Cc1nc(NC[C@]2(c3ncccc3F)C[C@H](F)C2)ncc1-c1cccc(CC(N)=O)c1 [2-{3-[2-({[3-fluoro-1-(3-fluoro(2-pyridyl))cyclobutyl]methyl}amino)-4-methylpyrimidin-5-yl]phenyl}acetamide]	C (C=10-20 uM)
NC(=O)c1ccc(F)c(-c2cnc(NCC3(c4ncccc4F)CC(F)C3)nc2)c1 (centres unmarked) [4-fluoro-3-[2-({[3-fluoro-1-(3-fluoro(2-pyridyl))cyclobutyl]methyl}amino)pyrimidin-5-yl]benzamide]	A (A=<1 uM)
N#Cc1cnc(-c2cnc(NCC3(c4ccccn4)CCC3)nc2)s1 [2-(2-{[(2-pyridylcyclobutyl)methyl]amino}pyrimidin-5-yl)-1,3-thiazole-5-carbonitrile]	D (D=>20 uM)
CC(C)(Nc1ncc(-n2cc(C#N)cn2)cn1)c1ncccc1Cl [1-(2-{[1-(3-chloro(2-pyridyl))-isopropyl]amino}pyrimidin-5-yl)pyrazole-4-carbonitrile]	D (D=>20 uM)

Second part, the compound after the results:

Mean AC1.4	SMILES
C (C=10-20 uM)	COc1ccc(C)nc1-c1cnc(NC[C@]2(c3ncccc3F)C[C@H](F)C2)nc1 [{[3-fluoro-1-(3-fluoro(2-pyridyl))cyclobutyl]methyl}[5-(3-methoxy-6-methyl(2-pyridyl))pyrimidin-2-yl]amine]
D (D=>20 uM)	Fc1ccc(C2(Nc3ncc(Br)cn3)CCC2)cc1 [(5-bromopyrimidin-2-yl)[(4-fluorophenyl)cyclobutyl]amine]
B (B=1-10 uM)	CC(C)(Nc1ncc(-c2cc(C(N)=O)ncn2)cn1)c1ncccc1Cl [6-(2-{[1-(3-chloro(2-pyridyl))-isopropyl]amino}pyrimidin-5-yl)pyrimidine-4-carboxamide]
D (D=>20 uM)	CC(=O)NCc1cnn(-c2cnc(NC(C)(C)c3ncccc3Cl)nc2)c1 [N-{[1-(2-{[1-(3-chloro(2-pyridyl))-isopropyl]amino}pyrimidin-5-yl)pyrazol-4-yl)]methyl}acetamide]
D (D=>20 uM)	O=c1[nH]cc(-c2cnc(NC[C@]3(c4ncccc4F)C[C@H](F)C3)nc2)c(=O)[nH]1 [5-[2-({[3-fluoro-1-(3-fluoro(2-pyridyl))cyclobutyl]methyl}amino)pyrimidin-5-yl]-1,3-dihydropyrimidine-2,4-dione]
D (D=>20 uM)	O=C(NC1(c2ccc(F)cc2)CCC1)c1cnc(NC2(c3ccc(F)cc3)CCC2)nc1C(F)(F)F [N-[(4-fluorophenyl)cyclobutyl](2-{[(4-fluorophenyl)cyclobutyl]amino}-4-(trifluoromethyl)pyrimidin-5-yl)carboxamide]
B (B=1-10 uM)	CNC(=O)c1cccc(-c2cnc(NC[C@]3(c4ncccc4F)C[C@H](F)C3)nc2)c1 [{3-[2-({[3-fluoro-1-(3-fluoro(2-pyridyl))cyclobutyl]methyl}amino)pyrimidin-5-yl]phenyl}-N-methylcarboxamide]
B (B=1-10 uM)	Fc1cccnc1C1(Nc2ncc(-c3ccc4[nH]ncc4c3)cn2)CCC1 [(5-(1H-indazol-5-yl)pyrimidin-2-yl)[(3-fluoro(2-pyridyl))cyclobutyl]amine]
D (D=>20 uM)	O=C(Nc1cnc(NCC2(c3ncccc3F)CCC2)nc1)c1nccs1 [N-[2-(([(3-fluoro(2-pyridyl))cyclobutyl]methyl}amino)pyrimidin-5-yl]-1,3-thiazol-2-ylcarboxamide]
A (A=<1 uM)	COC(=O)c1ccc(O)c(-c2cnc(NC[C@]3(c4ncccc4F)C[C@H](F)C3)nc2)c1 [methyl 3-[2-({[3-fluoro-1-(3-fluoro(2-pyridyl))cyclobutyl]methyl)amino)pyrimidin-5-yl]-4-hydroxybenzoate]
